We go through 16 compounds from US20250114345A1, “COMPOUNDS AND COMPOSITIONS AS CBP/P300 DEGRADERS AND USES THEREOF” (Oncopia Therapeutics, Inc. d/b/a/ SK Life Science Labs, priority 2023, published 2025).

Bounds are passed on as bounds.

The target of one test is T1, CBP (Homo sapiens, UniProt Q92793).
T1 construct: host or cells: A549 CBP HiBit cells
The experiment in a line: CBP degradation, HiBit technology in A549 CBP HiBit cells (24 h). The format is cell-based. The following applies: 24 hrs post treatment. Here is the method: p300 and CBP degradation potency and Dmax were determined using in cell western (ICW) assay technology in H1299 cells or HiBit technology in A549 HiBit cells.
A549 P300 HiBit and A549 CBP HiBit cells were plated in separate 384-well, TC treated, white-opaque, flat-bottomed microplate. Cells were plated at a cell density of 0.2×10^4 cells per well in assay media comprised of F-12K, 10% heat inactivated FBS, and 1% penicillin/streptomycin. Assay microplates containing HiBit cells were placed in a 37° C., 5% CO2, tissue culture incubator and left to equilibrate overnight. The next day cells were treated with serial dilutions of test compound made up of 10 mM stock solutions in DMSO. 384-Well plates containing treated cells were then placed back into a 37° C., 5% CO2, tissue culture incubator. Assay microplates containing A549 P300 HiBit cells were incubated for 2 hrs post treatment before P300 destruction was assessed, while microplates containing A549 CBP HiBit cells were incubated for 24 hrs post treatment before CBP destruction was determined. On the day of each assay time point, microplates were removed from the tissue culture incubator and prepared HiBit Lytic detection buffer (Promega, cat #N3O40) was added to each plate. Plates were covered with aluminum foil and incubated for ten minutes at room temperature on an orbital shaker. After incubation, luminescent signal of each plate was measured using the Envision instrument (Perkin Elmer).

A further test deals with T2, p300 (Homo sapiens, UniProt Q09472).
T2 construct: host or cells: A549 P300 HiBit cells
T2 sequence (Q09472 whole entry): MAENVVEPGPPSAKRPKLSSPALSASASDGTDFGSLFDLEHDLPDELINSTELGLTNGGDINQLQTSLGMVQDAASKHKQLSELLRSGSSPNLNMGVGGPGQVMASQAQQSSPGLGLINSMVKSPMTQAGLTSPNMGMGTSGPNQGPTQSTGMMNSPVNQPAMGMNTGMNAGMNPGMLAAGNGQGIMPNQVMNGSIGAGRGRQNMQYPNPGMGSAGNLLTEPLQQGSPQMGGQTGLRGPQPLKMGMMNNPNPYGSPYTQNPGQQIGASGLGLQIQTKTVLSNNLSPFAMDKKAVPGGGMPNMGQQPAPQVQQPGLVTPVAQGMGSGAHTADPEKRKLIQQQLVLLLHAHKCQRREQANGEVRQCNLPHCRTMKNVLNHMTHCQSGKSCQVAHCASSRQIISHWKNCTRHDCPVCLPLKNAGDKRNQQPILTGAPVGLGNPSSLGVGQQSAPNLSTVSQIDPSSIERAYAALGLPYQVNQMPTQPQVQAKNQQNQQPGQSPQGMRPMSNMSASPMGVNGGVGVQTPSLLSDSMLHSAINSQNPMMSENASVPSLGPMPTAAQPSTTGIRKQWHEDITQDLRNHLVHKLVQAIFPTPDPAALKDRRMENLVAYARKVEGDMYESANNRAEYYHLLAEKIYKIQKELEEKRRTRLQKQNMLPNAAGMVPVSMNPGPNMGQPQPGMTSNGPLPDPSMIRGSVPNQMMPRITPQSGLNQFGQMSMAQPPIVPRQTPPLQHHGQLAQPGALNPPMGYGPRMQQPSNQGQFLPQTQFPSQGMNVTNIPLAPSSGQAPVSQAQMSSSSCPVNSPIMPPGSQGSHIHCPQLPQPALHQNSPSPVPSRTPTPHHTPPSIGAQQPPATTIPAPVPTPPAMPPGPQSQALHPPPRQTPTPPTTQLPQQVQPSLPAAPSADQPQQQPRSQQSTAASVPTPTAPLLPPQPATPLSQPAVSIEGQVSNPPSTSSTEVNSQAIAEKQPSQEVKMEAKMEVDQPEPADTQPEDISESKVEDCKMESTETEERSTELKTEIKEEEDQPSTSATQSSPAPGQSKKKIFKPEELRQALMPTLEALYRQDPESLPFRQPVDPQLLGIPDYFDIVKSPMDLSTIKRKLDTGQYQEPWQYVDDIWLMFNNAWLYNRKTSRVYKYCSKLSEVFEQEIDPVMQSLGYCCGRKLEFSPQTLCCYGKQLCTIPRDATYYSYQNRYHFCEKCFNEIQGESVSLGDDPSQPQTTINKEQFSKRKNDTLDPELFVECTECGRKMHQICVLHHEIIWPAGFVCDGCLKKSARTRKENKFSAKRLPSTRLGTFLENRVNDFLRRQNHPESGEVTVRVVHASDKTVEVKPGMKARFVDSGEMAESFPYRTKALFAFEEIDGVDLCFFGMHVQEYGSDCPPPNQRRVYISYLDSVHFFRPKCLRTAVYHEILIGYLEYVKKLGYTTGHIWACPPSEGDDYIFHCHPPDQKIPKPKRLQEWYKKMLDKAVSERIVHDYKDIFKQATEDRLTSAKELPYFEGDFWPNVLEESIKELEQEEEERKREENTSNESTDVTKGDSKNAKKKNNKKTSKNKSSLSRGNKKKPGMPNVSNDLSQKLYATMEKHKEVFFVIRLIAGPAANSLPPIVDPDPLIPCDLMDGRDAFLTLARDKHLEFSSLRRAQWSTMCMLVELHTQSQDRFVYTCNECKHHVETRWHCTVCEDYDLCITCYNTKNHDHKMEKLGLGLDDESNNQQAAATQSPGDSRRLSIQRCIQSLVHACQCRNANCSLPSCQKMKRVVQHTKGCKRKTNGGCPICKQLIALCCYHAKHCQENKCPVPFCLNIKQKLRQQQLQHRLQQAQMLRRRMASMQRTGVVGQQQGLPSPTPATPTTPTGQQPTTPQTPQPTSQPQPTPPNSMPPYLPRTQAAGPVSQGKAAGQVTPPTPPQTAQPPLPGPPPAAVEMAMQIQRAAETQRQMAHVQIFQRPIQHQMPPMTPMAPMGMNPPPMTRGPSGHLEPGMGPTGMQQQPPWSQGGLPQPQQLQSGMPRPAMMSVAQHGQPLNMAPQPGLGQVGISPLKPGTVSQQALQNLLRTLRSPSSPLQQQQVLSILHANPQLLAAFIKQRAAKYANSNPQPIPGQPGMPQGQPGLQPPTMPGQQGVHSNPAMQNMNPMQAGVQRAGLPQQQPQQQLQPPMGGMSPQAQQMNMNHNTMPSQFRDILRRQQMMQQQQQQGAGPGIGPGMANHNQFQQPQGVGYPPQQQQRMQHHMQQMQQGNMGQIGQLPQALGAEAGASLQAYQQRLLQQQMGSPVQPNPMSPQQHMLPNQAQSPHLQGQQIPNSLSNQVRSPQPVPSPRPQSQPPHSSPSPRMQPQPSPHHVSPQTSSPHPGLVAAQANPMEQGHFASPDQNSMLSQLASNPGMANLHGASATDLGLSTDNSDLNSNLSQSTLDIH
Briefly: P300 degradation, HiBit technology in A549 P300 HiBit cells (2 h). The test is classed as cell-based. The following applies: 2 hrs post treatment; for Dmax: A549, A549 P300 HiBit cells; for DC50: A549 P300 HiBit cells. An outline of the steps: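 Cells: A549 HiBiT-tagged lines, 0.2×10^4/well, F-12K + 10% HI-FBS, equilibrated overnight. Tx: serial dilution of cpd (10 mM DMSO stock). Readout: HiBiT lytic reagent, 10 min RT shaking, luminescence → potency, Dmax.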

T1 sequence (Q92793 whole entry): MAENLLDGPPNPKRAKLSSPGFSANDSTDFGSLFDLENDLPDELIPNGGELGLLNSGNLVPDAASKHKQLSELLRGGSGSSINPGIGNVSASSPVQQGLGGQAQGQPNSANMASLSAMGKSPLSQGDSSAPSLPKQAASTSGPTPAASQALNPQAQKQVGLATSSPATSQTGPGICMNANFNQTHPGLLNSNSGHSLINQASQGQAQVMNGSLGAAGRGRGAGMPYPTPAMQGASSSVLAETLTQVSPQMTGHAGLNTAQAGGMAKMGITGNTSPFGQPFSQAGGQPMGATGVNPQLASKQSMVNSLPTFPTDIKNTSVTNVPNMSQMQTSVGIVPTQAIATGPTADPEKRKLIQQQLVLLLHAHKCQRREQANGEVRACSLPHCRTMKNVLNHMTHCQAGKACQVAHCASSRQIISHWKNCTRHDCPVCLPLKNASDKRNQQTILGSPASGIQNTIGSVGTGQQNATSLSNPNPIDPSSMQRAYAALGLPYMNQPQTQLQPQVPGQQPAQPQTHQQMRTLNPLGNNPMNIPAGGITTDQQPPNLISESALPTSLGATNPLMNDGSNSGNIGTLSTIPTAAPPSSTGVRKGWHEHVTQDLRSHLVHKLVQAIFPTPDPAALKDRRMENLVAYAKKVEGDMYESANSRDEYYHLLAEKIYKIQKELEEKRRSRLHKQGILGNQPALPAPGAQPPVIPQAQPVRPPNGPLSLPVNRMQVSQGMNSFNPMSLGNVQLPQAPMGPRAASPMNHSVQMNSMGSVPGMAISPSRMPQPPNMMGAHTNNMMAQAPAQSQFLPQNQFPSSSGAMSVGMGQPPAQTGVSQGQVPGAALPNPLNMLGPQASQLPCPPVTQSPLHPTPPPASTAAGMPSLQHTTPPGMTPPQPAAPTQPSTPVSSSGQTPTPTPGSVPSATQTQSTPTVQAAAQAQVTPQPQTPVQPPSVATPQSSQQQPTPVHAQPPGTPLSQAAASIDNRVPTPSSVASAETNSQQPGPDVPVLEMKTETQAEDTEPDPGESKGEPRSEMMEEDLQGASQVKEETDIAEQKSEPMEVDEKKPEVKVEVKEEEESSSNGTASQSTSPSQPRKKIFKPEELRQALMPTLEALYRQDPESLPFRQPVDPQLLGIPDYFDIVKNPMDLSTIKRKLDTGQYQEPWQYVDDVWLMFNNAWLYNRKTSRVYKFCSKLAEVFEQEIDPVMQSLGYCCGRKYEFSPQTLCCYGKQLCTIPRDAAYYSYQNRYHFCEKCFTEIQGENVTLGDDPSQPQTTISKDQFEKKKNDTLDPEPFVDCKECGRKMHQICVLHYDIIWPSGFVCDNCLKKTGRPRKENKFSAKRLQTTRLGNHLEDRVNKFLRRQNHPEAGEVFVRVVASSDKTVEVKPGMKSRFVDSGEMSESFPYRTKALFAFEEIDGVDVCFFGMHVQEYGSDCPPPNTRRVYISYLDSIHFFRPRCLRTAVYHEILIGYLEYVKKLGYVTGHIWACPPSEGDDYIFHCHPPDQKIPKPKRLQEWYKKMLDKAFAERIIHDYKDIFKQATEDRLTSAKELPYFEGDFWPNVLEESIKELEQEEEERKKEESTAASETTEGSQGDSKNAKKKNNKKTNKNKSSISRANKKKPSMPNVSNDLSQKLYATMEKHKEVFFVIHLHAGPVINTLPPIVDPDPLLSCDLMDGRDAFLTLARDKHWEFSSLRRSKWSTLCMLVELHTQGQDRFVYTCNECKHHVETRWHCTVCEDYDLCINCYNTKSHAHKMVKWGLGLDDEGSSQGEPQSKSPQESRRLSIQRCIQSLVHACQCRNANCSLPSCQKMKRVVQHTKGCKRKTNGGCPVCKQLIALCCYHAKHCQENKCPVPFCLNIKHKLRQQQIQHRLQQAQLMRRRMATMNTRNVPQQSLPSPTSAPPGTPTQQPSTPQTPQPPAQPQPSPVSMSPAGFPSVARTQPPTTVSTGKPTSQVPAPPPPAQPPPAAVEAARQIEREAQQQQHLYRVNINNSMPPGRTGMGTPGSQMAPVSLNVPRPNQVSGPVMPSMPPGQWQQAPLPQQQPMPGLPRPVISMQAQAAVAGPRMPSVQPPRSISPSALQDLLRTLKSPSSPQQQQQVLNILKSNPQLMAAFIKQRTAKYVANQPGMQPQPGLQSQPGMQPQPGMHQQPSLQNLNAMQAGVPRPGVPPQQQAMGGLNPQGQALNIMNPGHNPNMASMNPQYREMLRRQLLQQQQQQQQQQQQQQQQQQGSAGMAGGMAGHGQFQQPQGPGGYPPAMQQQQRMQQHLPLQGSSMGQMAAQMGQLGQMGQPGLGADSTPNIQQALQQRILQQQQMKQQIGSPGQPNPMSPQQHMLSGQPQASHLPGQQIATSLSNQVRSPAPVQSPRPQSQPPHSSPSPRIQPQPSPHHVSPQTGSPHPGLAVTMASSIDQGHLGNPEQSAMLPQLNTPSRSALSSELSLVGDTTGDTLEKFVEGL

On CBP, `Cc1cc(-c2cc3cccc(-c4cc(C(C)C)c5c(c4)n(C)c(=O)n5C)c3cn2)cnc1C(=O)NCC#Cc1ccc2occ(C3CCC(=O)NC3=O)c2c1` (centres unmarked) [Example A35, N-(3-(3-(2,6-Dioxopiperidin-3-yl)benzofuran-5-yl)prop-2-yn-1-yl)-5-(8-(7-isopropyl-1,3-dimethyl-2-oxo-2,3-dihydro-1H-benzo[d]imidazol-5-yl)isoquinolin-3-yl)-3-methylpicolinamide] yielded a DC50 of 10 to 99 nM and a maximal degradation (Dmax) of 20 to 39%.

As for `CC(C)c1cc(-c2cccc3cc(-c4ccc(C(=O)NCC#Cc5ccc6c(c5)n(C)c(=O)n6C5CCC(=O)NC5=O)nc4)ncc23)cc2c1n(C)c(=O)n2C` (centres unmarked) [Example A36, N-(3-(1-(2,6-Dioxopiperidin-3-yl)-3-methyl-2-oxo-2,3-dihydro-1H-benzo[d]imidazol-5-yl)prop-2-yn-1-yl)-5-(8-(7-isopropyl-1,3-dimethyl-2-oxo-2,3-dihydro-1H-benzo[d]imidazol-5-yl)isoquinolin-3-yl)picolinamide], on CBP, the DC50 was more than 1000 nM and the Dmax was less than 20%.

At p300, `Cc1cc2c(N3CCCc4cc(-c5ccc(C(=O)NCC#Cc6ccc7occ(C8CCC(=O)NC8=O)c7c6)nc5)c(F)cc43)cc(C3CCOCC3)cc2n(C)c1=O` (centres unmarked) [Example B143, N-(3-(3-(2,6-dioxopiperidin-3-yl)benzofuran-5-yl)prop-2-yn-1-yl)-5-(7-fluoro-1′,3′-dimethyl-2′-oxo-7′-(tetrahydro-2H-pyran-4-yl)-1′,2′,3,4-tetrahydro-2H-[1,5′-biquinolin]-6-yl) picolinamide] registered a Dmax of more than 80% and a DC50 of 1 to 9.9 nM.

`CCc1cc(-c2ncc3c(n2)CCCN3c2cc(C3CCOCC3)cc3c2cc(C)c(=O)n3C)cnc1C(=O)NCC#Cc1ccc2occ(C3CCC(=O)NC3=O)c2c1` (centres unmarked) [Example B144, 5-(5-(1,3-dimethyl-2-oxo-7-(tetrahydro-2H-pyran-4-yl)-1,2-dihydroquinolin-5-yl)-5,6,7,8-tetrahydropyrido[3,2-d]pyrimidin-2-yl)-N-(3-(3-(2,6-dioxopiperidin-3-yl)benzofuran-5-yl)prop-2-yn-1-yl)-3-ethylpicolinamide]: at p300, the maximal degradation (Dmax) was more than 80% and the DC50 lay within 1 to 9.9 nM.

For `Cc1cc2c(N3CCOc4cc(-c5ccc(C(=O)NCC#Cc6ccc7occ(C8CCC(=O)NC8=O)c7c6)nc5)c(F)cc43)cccc2n(C)c1=O` (centres unmarked) [Example B145, 5-(4-(1,3-dimethyl-2-oxo-1,2-dihydroquinolin-5-yl)-6-fluoro-3,4-dihydro-2H-benzo[b][1,4]oxazin-7-yl)-N-(3-(3-(2,6-dioxopiperidin-3-yl)benzofuran-5-yl)prop-2-yn-1-yl) picolinamide], at p300, the greatest degradation seen (Dmax) was more than 80% and the DC50 fell in the range of 1 to 9.9 nM.

On p300, `COC1CN(c2cc3c(cc(C)c(=O)n3C)c(-c3cccc4cc(-c5ccc(C(=O)NCC#Cc6ccc7occ(C8CCC(=O)NC8=O)c7c6)nc5)ncc34)n2)C1` (centres unmarked) [Example B146, N-(3-(3-(2,6-dioxopiperidin-3-yl)benzofuran-5-yl)prop-2-yn-1-yl)-5-(8-(7-(3-methoxyazetidin-1-yl)-1,3-dimethyl-2-oxo-1,2-dihydro-1,6-naphthyridin-5-yl)isoquinolin-3-yl) picolinamide] gave a Dmax of more than 80% and a 50% degradation concentration (DC50) of 1 to 9.9 nM.

On p300, `COc1cc(N2CCOc3cc(-c4ccc(C(=O)NCC#Cc5ccc6occ(C7CCC(=O)NC7=O)c6c5)nc4)c(F)cc32)c2cc(C)c(=O)n(C)c2c1` (centres unmarked) [Example B147, N-(3-(3-(2,6-dioxopiperidin-3-yl)benzofuran-5-yl)prop-2-yn-1-yl)-5-(6-fluoro-4-(7-methoxy-1,3-dimethyl-2-oxo-1,2-dihydro-quinolin-5-yl)-3,4-dihydro-2H-benzo[b][1,4]oxazin-7-yl)picolinamide] displayed a Dmax of more than 80% and a DC50 of 1 to 9.9 nM.

At p300, `CCc1cc(N2CCOc3cc(-c4ccc(C(=O)NCC#Cc5ccc6occ(C7CCC(=O)NC7=O)c6c5)nc4)c(F)cc32)c2cc(C)c(=O)n(C)c2c1` (centres unmarked) [Example B149, N-(3-(3-(2,6-dioxopiperidin-3-yl)benzofuran-5-yl)prop-2-yn-1-yl)-5-(4-(7-ethyl-1,3-dimethyl-2-oxo-1,2-dihydroquinolin-5-yl)-6-fluoro-3,4-dihydro-2H-benzo[b][1,4]oxazin-7-yl)picolinamide] returned a Dmax of more than 80% and a 50% degradation concentration (DC50) of 1 to 9.9 nM.

Regarding `Cc1cc2c(N3CCCc4nc(-c5ccc(C(=O)NCC#Cc6ccc7occ(C8CCC(=O)NC8=O)c7c6)nc5)ncc43)cc(C3CCN(C(=O)C4CCOCC4)CC3)cc2n(C)c1=O` (centres unmarked) [Example B150, 5-(5-(1,3-dimethyl-2-oxo-7-(1-(tetrahydro-2H-pyran-4-carbonyl)piperidin-4-yl)-1,2-dihydro-quinolin-5-yl)-5,6,7,8-tetrahydropyrido[3,2-d]pyrimidin-2-yl)-N-(3-(3-(2,6-dioxopiperidin-3-yl)benzofuran-5-yl)prop-2-yn-1-yl) picolinamide], at p300, the maximal degradation (Dmax) was 60 to 79% and the half-maximal degradation concentration (DC50) lay in the range of 1 to 9.9 nM.

Regarding `Cc1cc(N2CCCc3nc(-c4ccc(C(=O)NCC#Cc5ccc6occ(C7CCC(=O)NC7=O)c6c5)nc4)ncc32)c2cc(C)c(=O)n(C)c2c1` (centres unmarked) [Example B151, N-(3-(3-(2,6-dioxopiperidin-3-yl)benzofuran-5-yl)prop-2-yn-1-yl)-5-(5-(1,3,7-trimethyl-2-oxo-1,2-dihydroquinolin-5-yl)-5,6,7,8-tetrahydro-pyrido[3,2-d]pyrimidin-2-yl)picolinamide], on p300, the Dmax is more than 80% and the half-maximal degradation concentration (DC50) fell in the range of 1 to 9.9 nM.

On p300, `CCc1cc(N(C)c2ccn(-c3cnc(C(=O)NCC#Cc4cccc(NC5CCC(=O)NC5=O)c4)c(C)c3)c(=O)c2)c2cc(C)c(=O)n(C)c2c1` (centres unmarked) [Example B152, N-(3-(3-((2,6-dioxopiperidin-3-yl)amino)phenyl)prop-2-yn-1-yl)-4-((7-ethyl-1,3-dimethyl-2-oxo-1,2-dihydroquinolin-5-yl) (methyl)amino)-5′-methyl-2-oxo-2H-[1,3′-bipyridine]-6′-carboxamide] returned a Dmax of more than 80% and a DC50 of 1 to 9.9 nM.

Turning to `Cc1cc2c(N3CCCc4nc(-c5cnc(C(=O)NCC#Cc6ccc7occ(C8CCC(=O)NC8=O)c7c6)c(Cl)c5)ncc43)cccc2n(C)c1=O` (centres unmarked) [Example B155, 3-chloro-5-(5-(1,3-dimethyl-2-oxo-1,2-dihydroquinolin-5-yl)-5,6,7,8-tetrahydro-pyrido[3,2-d]pyrimidin-2-yl)-N-(3-(3-(2,6-dioxopiperidin-3-yl)benzofuran-5-yl)prop-2-yn-1-yl)picolinamide], on p300, the Dmax was more than 80% and the DC50 fell in the range of 1 to 9.9 nM.

On to `Cc1cc2c(N3CCCc4nc(-c5ccc(C(=O)NCC#Cc6cc7c(C8CCC(=O)NC8=O)cccc7o6)nc5)ncc43)cc(C3CCC(F)(F)CC3)nc2n(C)c1=O` (centres unmarked) [Example B158, 5-(5-(2-(4,4-difluorocyclohexyl)-6,8-dimethyl-7-oxo-7,8-dihydro-1,8-naphthyridin-4-yl)-5,6,7,8-tetrahydropyrido[3,2-d]pyrimidin-2-yl)-N-(3-(4-(2,6-dioxopiperidin-3-yl)benzofuran-2-yl)prop-2-yn-1-yl)picolinamide], for which, on p300, the Dmax is more than 80% and the DC50 was 10 to 99 nM.

On p300, `Cc1cc2c(N3CCCc4nc(-c5ccc(C(=O)NCC#Cc6cc7c(C8CCC(=O)NC8=O)cccn7n6)nc5)ncc43)cc(C3CCOCC3)cc2n(C)c1=O` (centres unmarked) [Example B170, 5-(5-(1,3-dimethyl-2-oxo-7-(tetrahydro-2H-pyran-4-yl)-1,2-dihydroquinolin-5-yl)-5,6,7,8-tetrahydropyrido[3,2-d]pyrimidin-2-yl)-N-(3-(4-(2,6-dioxopiperidin-3-yl)pyrazolo[1,5-a]pyridin-2-yl)prop-2-yn-1-yl)picolinamide] registered a maximal degradation (Dmax) of 20 to 39% and a DC50 of 1 to 9.9 nM.

Take `Cc1cc2c(N3CCCc4nc(-c5ccc(C(=O)NCC#Cc6cc7c(C8CCC(=O)NC8=O)cccc7o6)nc5)ncc43)cc(C3CC3)cc2n(C)c1=O` (centres unmarked) [Example B171, 5-(5-(7-cyclopropyl-1,3-dimethyl-2-oxo-1,2-dihydroquinolin-5-yl)-5,6,7,8-tetrahydropyrido [3,2-d]pyrimidin-2-yl)-N-(3-(4-(2,6-dioxo-piperidin-3-yl)benzofuran-2-yl)prop-2-yn-1-yl)picolinamide]: on p300, the greatest degradation seen (Dmax) was more than 80% and the DC50 fell in the range of 1 to 9.9 nM.

At p300, `Cc1cc2c(N3CCCc4nc(-c5ccc(C(=O)NCC#Cc6cc7c(C8CCC(=O)NC8=O)cccc7o6)nc5)ncc43)nc(N3CC4CC4C3)cc2n(C)c1=O` (centres unmarked) [Example B172, 5-(5-(7-(3-azabicyclo[3.1.0]hexan-3-yl)-1,3-dimethyl-2-oxo-1,2-dihydro-1,6-naphthyridin-5-yl)-5,6,7,8-tetrahydropyrido[3,2-d]pyrimidin-2-yl)-N-(3-(4-(2,6-dioxopiperidin-3-yl)benzofuran-2-yl)prop-2-yn-1-yl)picolinamide] yielded a Dmax of more than 80% and a DC50 of 10 to 99 nM.
